Measurements from patent publication US20120029187A1, “HALOALKYLSULFONANILIDE DERIVATIVE” (Nissan Chemical Industries, Ltd., priority 2009, published 2012).

What was measured:
Format in all cases: in vivo
barnyardgrass [1] = experiment: Test Example 1: herbicidal effects in preemergence treatment under submerged conditions; conditions: dose 2.52 g/a
In short: (§1)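 Score 0–5 by mortality (5: ≥90%; 0: <5%), read 3 weeks post-application. Paddy-type cups: alluvial soil under 4 cm water, weeds seeded plus transplanted 2.5-leaf rice; diluted EC dosed onto water surface same day as sowing, g/a basis; greenhouse 25 to 30° C.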

bulrush [2] = experiment: as above; conditions: dose 2.52 g/a
In short: as §1

ducksalad [3] = experiment: as above; conditions: dose 2.52 g/a
In short: as §1

transplanted rice = experiment: Test Example 1: preemergence treatment under submerged conditions, effect on crop; conditions: dose 2.52 g/a
In short: as §1

barnyardgrass [4] = experiment: Test Example 2: herbicidal effects during the vegetation period under submerged conditions; conditions: treatment during the vegetation period under submerged conditions; dose 2.52 g/a
In short: (§2)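 Barnyardgrass, bulrush and ducksalad were co-sown in alluvial soil flooded to 4 cm and grown in a greenhouse at 25 to 30° C. At the 1- or 2-leaf stage, water-diluted emulsifiable concentrates went onto the water surface at set doses (g/a). Herbicidal effect was scored three weeks later on a graded scale.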

bulrush [5] = experiment: as above; conditions: treatment during the vegetation period under submerged conditions; dose 2.52 g/a
In short: as §2

ducksalad [6] = experiment: as above; conditions: treatment during the vegetation period under submerged conditions; dose 2.52 g/a
In short: as §2

Italian ryegrass [7] = experiment: Test Example 3: herbicidal effects in soil treatment; conditions: dose 3.2 g/a
In short: (§3)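 Seeds were sown in sterilized diluvial soil and covered with about 1.5 cm of soil. Compounds, formulated as emulsifiable concentrates and diluted with water, were sprayed evenly over the soil surface at set doses in g/a. Herbicidal effect was scored on a rating scale three weeks later.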

barnyardgrass [8] = experiment: as above; conditions: dose 3.2 g/a
In short: as §3

common chickweed [9] = experiment: as above; conditions: dose 3.2 g/a
In short: as §3

common lambsquater [10] = experiment: as above; conditions: dose 3.2 g/a
In short: as §3

common ragweed [11] = experiment: as above; conditions: dose 3.2 g/a
In short: as §3

giant foxtail [12] = experiment: as above; conditions: dose 3.2 g/a
In short: as §3

large crabgrass [13] = experiment: as above; conditions: dose 3.2 g/a
In short: as §3

posumbu knotweed [14] = experiment: as above; conditions: dose 3.2 g/a
In short: as §3

redroot pigweed [15] = experiment: as above; conditions: dose 3.2 g/a
In short: as §3

velvetleaf [16] = experiment: as above; conditions: dose 3.2 g/a
In short: as §3

water foxtail [17] = experiment: as above; conditions: dose 3.2 g/a
In short: as §3

Italian ryegrass [18] = experiment: Test Example 4: herbicidal effect in foliage treatment; conditions: dose 3.2 g/a
In short: (§4)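 Sowing in sterilized diluvial soil, ~1.5 cm cover; growth 14 d, 25–30° C greenhouse; foliar spray of water-diluted EC at predetermined g/a; scoring 3 wk later on graded scale.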

barnyardgrass [19] = experiment: as above; conditions: dose 3.2 g/a
In short: as §4

beadstraw = experiment: as above; conditions: dose 3.2 g/a
In short: as §4

common chickweed [20] = experiment: as above; conditions: dose 3.2 g/a
In short: as §4

common lambsquater [21] = experiment: as above; conditions: dose 3.2 g/a
In short: as §4

common ragweed [22] = experiment: as above; conditions: dose 3.2 g/a
In short: as §4

giant foxtail [23] = experiment: as above; conditions: dose 3.2 g/a
In short: as §4

large crabgrass [24] = experiment: as above; conditions: dose 3.2 g/a
In short: as §4

posumbu knotweed [25] = experiment: as above; conditions: dose 3.2 g/a
In short: as §4

redroot pigweed [26] = experiment: as above; conditions: dose 3.2 g/a
In short: as §4

velvetleaf [27] = experiment: as above; conditions: dose 3.2 g/a
In short: as §4

water foxtail [28] = experiment: as above; conditions: dose 3.2 g/a
In short: as §4

[29] = three weeks after the application

## CCC1(C)CC(=O)N(Cc2ccccc2NS(=O)(=O)C(F)(F)F)CO1 (stereo not drawn) [II-40]
Barnyardgrass [1]
  A: barnyardgrass, herbicidal effect (evaluation scale 0-5): 5 (mortality of 90% or above (nearly complete death))
Bulrush [2]
  B: bulrush, herbicidal effect (evaluation scale 0-5): 5 (mortality of 90% or above (nearly complete death))
Ducksalad [3]
  C: ducksalad, herbicidal effect (evaluation scale 0-5): 5 (mortality of 90% or above (nearly complete death))
Transplanted rice
  a: transplanted rice, effect on crop (evaluation scale 0-5): 0 (mortality of less than 5% (almost ineffective))
Barnyardgrass [4]
  A: barnyardgrass, herbicidal effect (evaluation scale 0-5): 4 (mortality of at least 70% and less than 90%)
Bulrush [5]
  B: bulrush, herbicidal effect (evaluation scale 0-5): 5 (mortality of 90% or above (nearly complete death))
Ducksalad [6]
  C: ducksalad, herbicidal effect (evaluation scale 0-5): 5 (mortality of 90% or above (nearly complete death))
Italian ryegrass [7]
  H: Italian ryegrass, herbicidal effect (evaluation scale 0-5): 5 (mortality of 90% or above (nearly complete death))
Barnyardgrass [8]
  A: barnyardgrass, herbicidal effect (evaluation scale 0-5): 5 (mortality of 90% or above (nearly complete death))
Common chickweed [9]
  N: common chickweed, herbicidal effect (evaluation scale 0-5): 5 (mortality of 90% or above (nearly complete death))
Common lambsquater [10]
  L: common lambsquater, herbicidal effect (evaluation scale 0-5): 0 (mortality of less than 5% (almost ineffective))
Common ragweed [11]
  J: common ragweed, herbicidal effect (evaluation scale 0-5): 5 (mortality of 90% or above (nearly complete death))
Giant foxtail [12]
  E: giant foxtail, herbicidal effect (evaluation scale 0-5): 5 (mortality of 90% or above (nearly complete death))
Large crabgrass [13]
  D: large crabgrass, herbicidal effect (evaluation scale 0-5): 5 (mortality of 90% or above (nearly complete death))
Posumbu knotweed [14]
  M: posumbu knotweed, herbicidal effect (evaluation scale 0-5): 4 (mortality of at least 70% and less than 90%)
Redroot pigweed [15]
  K: redroot pigweed, herbicidal effect (evaluation scale 0-5): 4 (mortality of at least 70% and less than 90%)
Velvetleaf [16]
  I: velvetleaf, herbicidal effect (evaluation scale 0-5): 5 (mortality of 90% or above (nearly complete death))
Water foxtail [17]
  G: water foxtail, herbicidal effect (evaluation scale 0-5): 5 (mortality of 90% or above (nearly complete death))
Italian ryegrass [18]; three weeks after application
  H: Italian ryegrass, herbicidal effect: 5 (mortality of 90% or above (nearly complete death))
Barnyardgrass [19]; three weeks after application
  A: barnyardgrass, herbicidal effect: 5 (mortality of 90% or above (nearly complete death))
beadstraw; three weeks after application
  O: beadstraw, herbicidal effect: 3 (mortality of at least 40% and less than 70%)
Common chickweed [20]; three weeks after application
  N: common chickweed, herbicidal effect: 4 (mortality of at least 70% and less than 90%)
Common lambsquater [21]; three weeks after application
  L: common lambsquater, herbicidal effect: 4 (mortality of at least 70% and less than 90%)
Common ragweed [22]; three weeks after application
  J: common ragweed, herbicidal effect: 4 (mortality of at least 70% and less than 90%)
Giant foxtail [23]; three weeks after application
  E: giant foxtail, herbicidal effect: 4 (mortality of at least 70% and less than 90%)
Large crabgrass [24]; three weeks after application
  D: large crabgrass, herbicidal effect: 3 (mortality of at least 40% and less than 70%)
Posumbu knotweed [25]; three weeks after application
  M: posumbu knotweed, herbicidal effect: 0 (mortality of less than 5% (almost ineffective))
Redroot pigweed [26]; three weeks after application
  K: redroot pigweed, herbicidal effect: 0 (mortality of less than 5% (almost ineffective))
Velvetleaf [27]; three weeks after application
  I: velvetleaf, herbicidal effect: 5 (mortality of 90% or above (nearly complete death))
Water foxtail [28]; three weeks after application
  G: water foxtail, herbicidal effect: 5 (mortality of 90% or above (nearly complete death))

## CCOC(=O)N(c1ccccc1CN1OCCOC1=O)S(=O)(=O)C(F)(F)F [III-2]
Barnyardgrass [1]
  A: barnyardgrass, herbicidal effect (evaluation scale 0-5): 4 (mortality of at least 70% and less than 90%)
Bulrush [2]
  B: bulrush, herbicidal effect (evaluation scale 0-5): 5 (mortality of 90% or above (nearly complete death))
Ducksalad [3]
  C: ducksalad, herbicidal effect (evaluation scale 0-5): 5 (mortality of 90% or above (nearly complete death))
Transplanted rice
  a: transplanted rice, effect on crop (evaluation scale 0-5): 0 (mortality of less than 5% (almost ineffective))
Barnyardgrass [4]
  A: barnyardgrass, herbicidal effect (evaluation scale 0-5): 3 (mortality of at least 40% and less than 70%)
Bulrush [5]
  B: bulrush, herbicidal effect (evaluation scale 0-5): 5 (mortality of 90% or above (nearly complete death))
Ducksalad [6]
  C: ducksalad, herbicidal effect (evaluation scale 0-5): 4 (mortality of at least 70% and less than 90%)
Italian ryegrass [7]
  herbicidal effect, H: Italian ryegrass: 3 (mortality of at least 40% and less than 70%)
Barnyardgrass [8]
  herbicidal effect, A: barnyardgrass: 4 (mortality of at least 70% and less than 90%)
Common chickweed [9]
  herbicidal effect, N: common chickweed: 3 (mortality of at least 40% and less than 70%)
Common lambsquater [10]
  herbicidal effect, L: common lambsquater: 5 (mortality of 90% or above (nearly complete death))
Common ragweed [11]
  herbicidal effect, J: common ragweed: 0 (mortality of less than 5% (almost ineffective))
Giant foxtail [12]
  herbicidal effect, E: giant foxtail: 0 (mortality of less than 5% (almost ineffective))
Large crabgrass [13]
  herbicidal effect, D: large crabgrass: 0 (mortality of less than 5% (almost ineffective))
Posumbu knotweed [14]
  herbicidal effect, M: posumbu knotweed: 4 (mortality of at least 70% and less than 90%)
Redroot pigweed [15]
  herbicidal effect, K: redroot pigweed: 0 (mortality of less than 5% (almost ineffective))
Velvetleaf [16]
  herbicidal effect, I: velvetleaf: 5 (mortality of 90% or above (nearly complete death))
Water foxtail [17]
  herbicidal effect, G: water foxtail: 5 (mortality of 90% or above (nearly complete death))
Italian ryegrass [18]; [29]
  H: Italian ryegrass, herbicidal effect: 3 (mortality of at least 40% and less than 70%)
Barnyardgrass [19]; [29]
  A: barnyardgrass, herbicidal effect: 4 (mortality of at least 70% and less than 90%)
beadstraw; [29]
  O: beadstraw, herbicidal effect: 3 (mortality of at least 40% and less than 70%)
Common chickweed [20]; [29]
  N: common chickweed, herbicidal effect: 3 (mortality of at least 40% and less than 70%)
Common lambsquater [21]; [29]
  L: common lambsquater, herbicidal effect: 3 (mortality of at least 40% and less than 70%)
Common ragweed [22]; [29]
  J: common ragweed, herbicidal effect: 4 (mortality of at least 70% and less than 90%)
Giant foxtail [23]; [29]
  E: giant foxtail, herbicidal effect: 0 (mortality of less than 5% (almost ineffective))
Large crabgrass [24]; [29]
  D: large crabgrass, herbicidal effect: 0 (mortality of less than 5% (almost ineffective))
Posumbu knotweed [25]; [29]
  M: posumbu knotweed, herbicidal effect: 4 (mortality of at least 70% and less than 90%)
Redroot pigweed [26]; [29]
  K: redroot pigweed, herbicidal effect: 3 (mortality of at least 40% and less than 70%)
Velvetleaf [27]; [29]
  I: velvetleaf, herbicidal effect: 4 (mortality of at least 70% and less than 90%)
Water foxtail [28]; [29]
  G: water foxtail, herbicidal effect: 5 (mortality of 90% or above (nearly complete death))
